Test results taken from patent US20110105382A1, “CALMODULIN-BINDING PEPTIDES THAT REDUCE CELL PROLIFERATION IN CANCER AND SMOOTH MUSCLE PROLIFERATION DISEASES” (priority 2007, published 2011).
Where no end group is shown, it is not given here.

Legend:
[1] = test system: primary human aortic VSMC; test: 3H-thymidine incorporation assay, human aortic VSMC; type: cell-based; details: 10 and 100 μM for 1.0 h, 72 h after treatment
Description: Cell culture conditions The isolation and culture of primary mouse aortic VSMC have was performed according to methods previously described (Afroze T, Yang L L, Wang C, Gros R, Kalair W, Hogue A N, Mungrue I N, Zhu Z, Husain M. Calcineurin-independent regulation of plasma membrane Ca2+ ATPase-4 in the vascular smooth muscle cell cycle. Am J Physiol Cell Physiol. July 2003; 285(1):C88-95). VSMCs were grown in DMEM (GIBCO/BRL, Gaithersburg, Md.) supplemented with 10% FBS (Hyclone, Logan, Utah), 50 ng/mL platelet-derived growth factor (PDGF, Sigma) and 1% penicillin-streptomycin (GIBCO/BRL). For serum starvation, cells were grown to 60% to 70% confluence, washed twice with PBS, and cultured in starvation medium (0.25% FBS-supplemented DMEM) for 72 hours to achieve Go arrest. Progression to G1/S was brought about by stimulation with 10% FBS and 50 ng/mL PDGF for 24 hours. Cells and reagents for primary human aortic VSMC culture were purchased from Cascade Biologics. […]
^3H-thymidine incorporation proliferation assay. […] Cells were grown at 37° C. and analyzed at 24, 48 and 72 h after ^3H-thymidine exposure. […] Solubilized contents of wells were removed and added to 2.5 ml of scintillation fluid (ReadySafe™ Cocktail, Beckman Coulter, Product No. 141349). Radioactivity was measured in a scintillation counter (Beckman Coulter, LS 6500).

primary mouse aortic SMC [2] = type: cell-based; details: for proliferation of primary mouse aortic SMC (MTT), TAT-fused peptides: 100 μM, MTT after 2 days
Description: (§1) Cell culture conditions The isolation and culture of primary mouse aortic VSMC have was performed according to methods previously described (Afroze T, Yang L L, Wang C, Gros R, Kalair W, Hogue A N, Mungrue I N, Zhu Z, Husain M. Calcineurin-independent regulation of plasma membrane Ca2+ ATPase-4 in the vascular smooth muscle cell cycle. Am J Physiol Cell Physiol. July 2003; 285(1):C88-95). VSMCs were grown in DMEM (GIBCO/BRL, Gaithersburg, Md.) supplemented with 10% FBS (Hyclone, Logan, Utah), 50 ng/mL platelet-derived growth factor (PDGF, Sigma) and 1% penicillin-streptomycin (GIBCO/BRL). For serum starvation, cells were grown to 60% to 70% confluence, washed twice with PBS, and cultured in starvation medium (0.25% FBS-supplemented DMEM) for 72 hours to achieve Go arrest. Progression to G1/S was brought about by stimulation with 10% FBS and 50 ng/mL PDGF for 24 hours. Cells and reagents for primary human aortic VSMC culture were purchased from Cascade Biologics. Human VSMC(C-007-5C) were grown in Medium 231 with Smooth Muscle Growth Supplement (SMGS) S-007-25 and 1% penicillin-streptomycin (GIBCO/BRL). Cyclin E1/E2 double knockout mouse embryonic fibroblasts (MEF) were kindly provided by Dr. P. Sicinski (Harvard Medical School), and maintained in DMEM with 10% FBS (Hyclone) and 1% penicillin-streptomycin (GIBCO/BRL). Go arrest of MEF was achieved by starvation for 48 h in medium lacking FBS. Mouse embryonic fibroblasts (MEF) were maintained for normal culture in 10% FBS-supplemented DMEM. For the starvation of MEF, cells were cultured in starvation medium without FBS for 48 hours to achieve Go arrest. HeLa (human cervical cancer cell), Saos-2 (human osteosarcoma cell) and A549 (human lung cancer cell) were cultured in 10% FBS-supplemented DMEM.
(§2) MTT colorimetric survival assay. Active mitochondria of living cells can cleave MTT to produce formazan, the amount of which is directly proportional to the number of living cells. Cell survival was assessed (Denizot, 1986). Cells in 96-well plate were washed two times with PBS followed by 4 hr of incubation at 37° C. with 1 mg/ml of MTT (in phenol red free DMEM supplemented with 2 mM of L-glutamine & 1 mM of sodium pyruvate) in a reaction volume of 100 μl. After removing MTT solution, DMSO was added to dissolve formazan crystals. Plate was shaken for 5 min at 55° C. for complete dissolve. Dye absorbance in viable cells was measured at 570 nm with 630 nm as a reference wavelength. All experiments were repeated at least 3 times, and each experimental condition was repeated in at least quadruplicate wells in each experiment.
(§3) Nucleofection. For peptides delivery via Nucleofector technology, 1×10^6 cells were harvested, resuspended in 100 μl of Nucleofector solution (for VSMC: Cat. No. VPI-1004; for MEF: Cat. No.: VPD-1005, both provided by Amaxa GmBH, Köln, Germany) and mixed with 100 nmole (in 10 μl) of each peptide. The cell solution was transferred into a kit-provided cuvette and positioned into a Nucleofector device. Subsequently, the transfection was performed with a single pulse using the preprogrammed nucleofection program (A-33 for VSMC; T-20 for MEF) according to the manufacturer's recommendation. Following nucleofection, the cells were transferred into 96-well plate (2K or 5K cells per well for MTT assay) or T25 culture flasks (for FACS analysis) containing pre-warmed stem cell medium using kit-provided plastic pipettes to prevent cell damage and the cells were cultured at 37° C. in 5% CO2.

[3] = test system: HeLa (human cervical cancer cell); test: MTT proliferation assay, HeLa; type: cell-based; details: 100 μM, MTT after 2 days
Description: as §1, §2

[4] = test system: Saos-2 (human osteosarcoma); test: MTT proliferation assay, Saos-2; type: cell-based; details: 100 μM, MTT after 2 days
Description: as §1, §2

[5] = test system: A549 (human lung cancer cell); test: MTT proliferation assay, A549; type: cell-based; details: 100 μM, MTT after 2 days
Description: as §1, §2

[6] = test system: mouse carotid artery injury model; test: Mouse carotid artery injury model (wire denudation); type: in vivo; details: truncated peptides, arteries harvested 14 days following injury
Description: Injury of mouse carotid arteries (wire denudation) and local administration of CBS peptide. The mice (8-12 weeks, 20-25 g) were anesthetized with i.p. Ketamine (100 mg/kg, MTC Pharmaceuticals, Cambridge, ON, Canada) and Xylazine (10 mg/kg, Bayer Inc., Etobicoke, ON, Canada). Surgical procedures were performed under a dissecting microscope (MZ6 Leica, Heerbrugg, Switzerland). The left carotid artery was exposed via a midline incision on the ventral side of the neck. The bifurcation of the carotid artery was located and two ligatures were placed around the external carotid artery. This vessel was then tied off with the distal ligature. […] An incision hole is made between the two ligatures of external carotid artery, through which the denudation device is introduced. This device consists of a curved flexible copper wire (0.3 mm diameter) which is passed down to the common carotid artery, and under rotation, passed along this segment four times. The wire was then removed, and the external carotid artery was tied off proximal to the incision hole with the proximal ligature. […]
Tissue processing and analysis. […] Images were analyzed by planimetry using Image J software. […] Medial mass was calculated subtracting the luminal from whole area. […]

cyclin E/CDK2 = target: T1, cyclin E/CDK2 (Mus musculus, UniProt P0DP26); test: Histone H1 in vitro kinase assay; type: biochemical; details: G1/S-synchronized mouse VSMC, each peptide 100 μM
T1 construct: endogenous in cells; host or cells: primary mouse aortic VSMC (G1/S-synchronized), immunoprecipitated complexes
Description: Immunoprecipitation and kinase assays. 5×10^6 SMC were harvested and re-suspended with 2 ml of lysis buffer (50 mM Tris (pH 7.4), 250 mM NaCl, 5 mM EDTA, 0.1% NP-40, 0.5 mM DTT, 0.1 mM Na3VO4, 5 μg/ml leupeptin, 5 μg/ml aprotinin, 2 mM PMSF, and 10% glycerol). After homogenization, cell lysates were clarified by centrifugation at 12×10^3 rpm, 4° C. for 30 min, and the supernatant was collected. An aliquot was taken for protein concentration determination using the BCA protein assay kit (Sigma). Cell extracts (200 μg) were then incubated for 2 hr at 4° C. with saturating concentrations of polyclonal antibodies (Abs). […]
For the in vitro kinase assays, 20 μl of kinase reaction mixture (20 mM Tris (pH 7.4), 5 mM MgCl2, 2.5 mM MnCl2, 1 mM DTT, 10 μg of C-terminal of human Rb protein (Upstate Biotech.) or 4 μg of histone-H1 (Upstate Biotech.) as substrates, 13 μM ATP, and 2.4 μCi [γ-^32P]ATP (Amersham Pharmacia)) was added to CDK2-, cyclin E-, or cyclin A-immunoprecipitated (IPd) complexes after removing the washing buffer from GammaBind™ G Sepharose resin. Based on the total calcium content of kinase reaction mixtures (as determined by inductively coupled plasma atomic emission spectrometry), amounts of EGTA required to yield final concentrations of free Ca^2+ ion (0, 100 or 500 nM) were calculated by WinMaxC (http://www.stanford.edu/˜cpatton/winmaxc2.html). […]

primary mouse aortic SMC [7] = test: Lactate dehydrogenase (LDH) cytotoxicity assay; type: cell-based; details: nucleofection, 1 mM, asynchronized cells
Description: Lactate dehydrogenase (LDH) assay. To measure the level of cytotoxicity, LDH based in vitro toxicology assay kit (Sigma, Cat. No.: TOX-7) was used (Legrand, 1992). After nucleofection of peptides, 10^6 cells were grown on 24-well plate in the presence of phenol red free DMEM. 3 days later, 500 μl of cell culture media was collected from each well for assay followed by centrifugation (12,000 rpm, 30 min, at 4° C.) to remove any cell debris completely. Subsequent procedures for enzymatic assay were performed according to manufacture's protocol.
as §3, with “Following nucleofection, the cells were transferred into 96-well plate (2K or 5K cells per well for MTT assay) or T25 culture flasks (for FACS analysis) containing pre-warmed stem cell medium using kit-provided plastic pipettes to prevent cell damage and the cells were cultured at 37° C. in 5% CO2.” left out

Sequence	proliferation of primary mouse aortic SMC (MTT), TAT-fused peptides (primary mouse aortic SMC [2])	proliferation of HeLa cells (MTT) [3]	proliferation of Saos-2 cells (MTT) [4]	proliferation of A549 cells (MTT) [5]	further results
RRRQRRKKRGVDIDQARLKMLGQTRPHDDDDC [TAT-NC, reference compound]	–	–	–	–	3H-thymidine incorporation (S-phase entry), human aortic VSMC [1]: not
RRRQRRKKRG [TAT domain, reference compound]	no anti-proliferative effect	no anti-proliferative effect	no anti-proliferative effect	no anti-proliferative effect	–
RRRQRRKKRGAEFSARSRKRKANVTVFL (N-terminal TAT peptide; listed as Homo sapiens) [TAT-SEQ ID NO:2 (#3-20)]	most powerfully and efficiently	most powerfully and efficiently	most powerfully and efficiently	most powerfully and efficiently	anti-proliferative effect on the site of injury (media mass, I/M ratio) [6]: anti-proliferative effect
GGAEFSARSRKRKANVTVFLQD [CBS]	–	–	–	–	inhibition of in vitro cyclin E/CDK2 activity (cyclin E/CDK2): 40%; maximum level of inhibition of VSMC proliferation (primary mouse aortic SMC [2]): 50%; cell death (LDH assay) (primary mouse aortic SMC [7]): did not cause any increase in cell death
FAFGRQVNKARSEKALGVSDRT [scrambled, reference compound]	–	–	–	–	proliferation of primary mouse aortic SMC (MTT) (primary mouse aortic SMC [2]; peptide delivered via nucleofection): no effect
RRRQRRKKRGVTVFL (N-terminal TAT cell-penetrating peptide; listed as Homo sapiens) [TAT-SEQ ID NO:2(#16-20)]	–	–	–	–	anti-proliferative effect on the site of injury (media mass, I/M ratio) [6]: anti-proliferative effect
RRRQRRKKRGEFSARSRKRKANVTVF (N-terminal TAT peptide; listed as Homo sapiens) [TAT-SEQ ID NO:2 (#4-19)]	started to lose its proliferative function	started to lose its proliferative function	started to lose its proliferative function	started to lose its proliferative function	–
